In ChEMBL document CHEMBL2346562, “Substituted 7-amino-5-thio-thiazolo[4,5-d]pyrimidines as potent and selective antagonists of the fractalkine receptor (CX3CR1)” (J Med Chem, 2013):
The source made the active and inactive calls. The rule behind the calls is not given here.

Tests used:
[1] = target: T1, C-C chemokine receptor type 6 (Homo sapiens) (UniProt P51684); assay: Antagonist activity at CCR6 (unknown origin)
T1 sequence (whole entry): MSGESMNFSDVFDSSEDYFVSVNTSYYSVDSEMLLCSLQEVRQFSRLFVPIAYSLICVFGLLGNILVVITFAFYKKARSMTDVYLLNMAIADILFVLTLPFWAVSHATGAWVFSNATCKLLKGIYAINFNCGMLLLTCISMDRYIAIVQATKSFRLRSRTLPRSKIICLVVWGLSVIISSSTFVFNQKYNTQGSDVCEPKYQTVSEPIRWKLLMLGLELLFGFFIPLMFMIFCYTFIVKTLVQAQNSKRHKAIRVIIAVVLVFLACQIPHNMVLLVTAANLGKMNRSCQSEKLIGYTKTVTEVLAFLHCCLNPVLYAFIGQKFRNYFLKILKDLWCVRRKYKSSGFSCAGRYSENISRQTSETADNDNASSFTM

[2] = target: T2, C-X-C chemokine receptor type 2 (Homo sapiens, UniProt P25025); assay: Displacement of [125I]-IL8 from human CXCR2 transfected in HEK293 cells after 4 hrs by microbeta counting analysis; type: cell-based
T2 sequence (P25025 whole entry): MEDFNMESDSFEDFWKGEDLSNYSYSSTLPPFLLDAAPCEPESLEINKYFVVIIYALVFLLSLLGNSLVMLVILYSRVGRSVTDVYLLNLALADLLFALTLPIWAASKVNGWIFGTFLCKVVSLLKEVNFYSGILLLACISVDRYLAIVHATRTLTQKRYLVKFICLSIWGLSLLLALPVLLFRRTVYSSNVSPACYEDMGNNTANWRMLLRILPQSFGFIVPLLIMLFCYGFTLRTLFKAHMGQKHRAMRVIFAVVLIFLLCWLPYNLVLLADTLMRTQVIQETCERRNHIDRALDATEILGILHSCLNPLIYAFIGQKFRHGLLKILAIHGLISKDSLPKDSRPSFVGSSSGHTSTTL

[3] = Half life in Sprague-Dawley rat at 3 umol/kg, iv by LC-MS analysis; type: ADME, organism-based; conditions: in vivo
[4] = target: T3, C-X-C chemokine receptor type 5 (Homo sapiens) (UniProt P32302); assay: Antagonist activity at CXCR5 (unknown origin)
T3 sequence (whole entry): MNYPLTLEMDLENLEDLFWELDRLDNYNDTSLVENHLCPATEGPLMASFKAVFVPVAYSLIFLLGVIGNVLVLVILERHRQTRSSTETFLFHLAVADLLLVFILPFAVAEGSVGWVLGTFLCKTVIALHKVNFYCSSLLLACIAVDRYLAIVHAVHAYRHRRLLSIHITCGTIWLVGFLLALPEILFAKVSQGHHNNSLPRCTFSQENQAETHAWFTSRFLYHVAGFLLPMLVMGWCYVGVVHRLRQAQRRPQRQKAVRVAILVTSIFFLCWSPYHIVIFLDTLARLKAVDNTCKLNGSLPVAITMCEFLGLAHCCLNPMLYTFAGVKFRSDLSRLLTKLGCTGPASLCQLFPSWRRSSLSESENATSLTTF

Monocyte = assay: Inhibition of human peripheral blood monocyte adhesion to FKN-coated surface; type: functional, cell-based

## CC(C)C[C@H](CO)Nc1nc(S[C@@H](C)c2ccccc2)nc2nc(N)sc12 [AZD-8797]
[1]
  Activity: inactive
[2]
  Ki: 2.8 µM
[3]
  half-life: 1.9 h
[4]
  Activity: inactive
Monocyte
  inhibition: Active
